Laboratory results taken from ChEMBL document CHEMBL4507316 (2021).

Legend:
[1] = molecular target: Wee1-like protein kinase (Homo sapiens) (UniProt P30291); assay: WEE1 ProQinase selectivity panel; settings: Compound concentration 1.0 uM
[2] = tested on: Platelet-derived growth factor receptor alpha (Homo sapiens), P16234 [T674I]; assay: PDGFR-alpha T674I ProQinase selectivity panel; settings: Compound concentration 1.0 uM
[3] = molecular target: G protein-coupled receptor kinase 5 (Homo sapiens) (UniProt P34947); assay: GRK5 ProQinase selectivity panel; settings: Compound concentration 1.0 uM
[4] = molecular target: Serine/threonine-protein kinase Chk1 (Homo sapiens) (UniProt O14757); assay: CHK1 ProQinase selectivity panel; settings: Compound concentration 1.0 uM
[5] = molecular target: Tyrosine-protein kinase CSK (Homo sapiens) (UniProt P41240); assay: CSK ProQinase selectivity panel; settings: Compound concentration 1.0 uM
[6] = molecular target: Mitogen-activated protein kinase kinase kinase 3 (Homo sapiens) (UniProt Q99759); assay: MEKK3 ProQinase selectivity panel; settings: Compound concentration 1.0 uM
[7] = molecular target: Alpha-1A adrenergic receptor (Homo sapiens) (UniProt P35348); settings: Compound concentration 10.0 uM
[8] = molecular target: Tyrosine-protein kinase FRK (Homo sapiens) (UniProt P42685); assay: FRK ProQinase selectivity panel; settings: Compound concentration 1.0 uM
[9] = tested on: Hepatocyte growth factor receptor (Homo sapiens), P08581 [Y1230D]; assay: MET Y1230D ProQinase selectivity panel; settings: Compound concentration 1.0 uM
[10] = molecular target: MAP kinase-interacting serine/threonine-protein kinase 2 (Homo sapiens) (UniProt Q9HBH9); assay: MKNK2 ProQinase selectivity panel; settings: Compound concentration 1.0 uM
[11] = molecular target: RAC-gamma serine/threonine-protein kinase (Homo sapiens) (UniProt Q9Y243); assay: AKT3 ProQinase selectivity panel; settings: Compound concentration 1.0 uM
[12] = molecular target: Beta-1 adrenergic receptor (Homo sapiens) (UniProt P08588); settings: Compound concentration 10.0 uM
[13] = molecular target: cAMP-dependent protein kinase catalytic subunit alpha (Homo sapiens) (UniProt P17612); assay: PKA ProQinase selectivity panel; settings: Compound concentration 1.0 uM
[14] = molecular target: Casein kinase I isoform gamma-1 (Homo sapiens) (UniProt Q9HCP0); assay: CK1-gamma1 ProQinase selectivity panel; settings: Compound concentration 1.0 uM
[15] = molecular target: Mitogen-activated protein kinase 9 (Homo sapiens) (UniProt P45984); assay: JNK2 ProQinase selectivity panel; settings: Compound concentration 1.0 uM
[16] = molecular target: Bone morphogenetic protein receptor type-1A (Homo sapiens) (UniProt P36894); assay: BMPR1A ProQinase selectivity panel; settings: Compound concentration 1.0 uM
[17] = molecular target: Serine/threonine-protein kinase N2 (Homo sapiens) (UniProt Q16513); assay: PRK2 ProQinase selectivity panel; settings: Compound concentration 1.0 uM
[18] = molecular target: Casein kinase I isoform epsilon (Homo sapiens) (UniProt P49674); assay: CK1-epsilon ProQinase selectivity panel; settings: Compound concentration 1.0 uM
[19] = molecular target: 5-hydroxytryptamine receptor 1A (Homo sapiens) (UniProt P08908); settings: Compound concentration 10.0 uM
[20] = molecular target: Protein kinase C gamma type (Homo sapiens) (UniProt P05129); assay: PKC-gamma ProQinase selectivity panel; settings: Compound concentration 1.0 uM
[21] = molecular target: 5-hydroxytryptamine receptor 3A (Homo sapiens) (UniProt P46098); settings: Compound concentration 10.0 uM
[22] = molecular target: Serine/threonine-protein kinase WNK3 (Homo sapiens) (UniProt Q9BYP7); assay: WNK3 ProQinase selectivity panel; settings: Compound concentration 1.0 uM
[23] = molecular target: Serine/threonine-protein kinase SIK2 (Homo sapiens) (UniProt Q9H0K1); assay: SNF1LK2 ProQinase selectivity panel; settings: Compound concentration 1.0 uM
[24] = molecular target: Mitogen-activated protein kinase 3 (Homo sapiens) (UniProt P27361); assay: ERK1 ProQinase selectivity panel; settings: Compound concentration 1.0 uM
[25] = molecular target: 5'-AMP-activated protein kinase catalytic subunit alpha-1 (Homo sapiens) (UniProt Q13131); assay: AMPK-alpha1 ProQinase selectivity panel; settings: Compound concentration 1.0 uM
[26] = molecular target: Cyclin-dependent kinase 5/CDK5 activator 1 (Homo sapiens) (UniProt Q00535+Q15078); assay: CDK5/p35NCK ProQinase selectivity panel; format: protein-complex assay; settings: Compound concentration 1.0 uM
[27] = molecular target: D(1B) dopamine receptor (Homo sapiens) (UniProt P21918); settings: Compound concentration 10.0 uM
[28] = molecular target: Homeodomain-interacting protein kinase 3 (Homo sapiens) (UniProt Q9H422); assay: HIPK3 ProQinase selectivity panel; settings: Compound concentration 1.0 uM
[29] = tested on: Epidermal growth factor receptor (Homo sapiens), P00533 [UNDEFINED MUTATION]; assay: EGF-R d752-759 ProQinase selectivity panel; settings: Compound concentration 1.0 uM
[30] = molecular target: Ephrin type-B receptor 4 (Homo sapiens) (UniProt P54760); assay: EPHB4 ProQinase selectivity panel; settings: Compound concentration 1.0 uM
[31] = tested on: Epidermal growth factor receptor (Homo sapiens), P00533 [L861Q]; assay: EGF-R L861Q ProQinase selectivity panel; settings: Compound concentration 1.0 uM
[32] = tested on: Epidermal growth factor receptor (Homo sapiens), P00533 [L858R,T790M]; assay: EGF-R T790M/L858R ProQinase selectivity panel; settings: Compound concentration 1.0 uM
[33] = tested on: Epidermal growth factor receptor (Homo sapiens), P00533 [G719S]; assay: EGF-R G719S ProQinase selectivity panel; settings: Compound concentration 1.0 uM
[34] = molecular target: Dual specificity protein kinase CLK3 (Homo sapiens) (UniProt P49761); assay: CLK3 ProQinase selectivity panel; settings: Compound concentration 1.0 uM
[35] = molecular target: Glycogen synthase kinase-3 beta (Homo sapiens) (UniProt P49841); assay: GSK3-beta ProQinase selectivity panel; settings: Compound concentration 1.0 uM
[36] = molecular target: Serine/threonine-protein kinase TAO3 (Homo sapiens) (UniProt Q9H2K8); assay: TAOK3 ProQinase selectivity panel; settings: Compound concentration 1.0 uM
[37] = molecular target: Protein kinase C theta type (Homo sapiens) (UniProt Q04759); assay: PKC-theta ProQinase selectivity panel; settings: Compound concentration 1.0 uM
[38] = molecular target: STE20/SPS1-related proline-alanine-rich protein kinase (Homo sapiens) (UniProt Q9UEW8); assay: STK39 ProQinase selectivity panel; settings: Compound concentration 1.0 uM
[39] = molecular target: Serine/threonine-protein kinase Sgk2 (Homo sapiens) (UniProt Q9HBY8); assay: SGK2 ProQinase selectivity panel; settings: Compound concentration 1.0 uM
[40] = molecular target: 5-hydroxytryptamine receptor 5A (Homo sapiens) (UniProt P47898); settings: Compound concentration 10.0 uM
[41] = molecular target: Mitogen-activated protein kinase kinase kinase 14 (Homo sapiens) (UniProt Q99558); assay: NIK ProQinase selectivity panel; settings: Compound concentration 1.0 uM
[42] = molecular target: Tyrosine-protein kinase Fgr (Homo sapiens) (UniProt P09769); assay: FGR ProQinase selectivity panel; settings: Compound concentration 1.0 uM
[43] = molecular target: 5-hydroxytryptamine receptor 6 (Homo sapiens) (UniProt P50406); settings: Compound concentration 10.0 uM
[44] = molecular target: Macrophage colony-stimulating factor 1 receptor (Homo sapiens) (UniProt P07333); assay: CSF1-R ProQinase selectivity panel; settings: Compound concentration 1.0 uM
[45] = molecular target: Dual specificity protein kinase CLK4 (Homo sapiens) (UniProt Q9HAZ1); assay: CLK4 ProQinase selectivity panel; settings: Compound concentration 1.0 uM
[46] = molecular target: High affinity nerve growth factor receptor (Homo sapiens) (UniProt P04629); assay: TRK-A ProQinase selectivity panel; settings: Compound concentration 1.0 uM
[47] = molecular target: DNA-dependent protein kinase catalytic subunit (Homo sapiens) (UniProt P78527); assay: DNA-PK ProQinase selectivity panel; settings: Compound concentration 1.0 uM
[48] = molecular target: CDK7/Cyclin H/MNAT1 (Homo sapiens) (UniProt P51946+P50613+P51948); assay: CDK7/CycH/MAT1 ProQinase selectivity panel; format: protein-complex assay; settings: Compound concentration 1.0 uM
[49] = molecular target: Delta-type opioid receptor (Homo sapiens) (UniProt P41143); settings: Compound concentration 10.0 uM

Chain of D(1B) dopamine receptor (Homo sapiens) (P21918 whole entry): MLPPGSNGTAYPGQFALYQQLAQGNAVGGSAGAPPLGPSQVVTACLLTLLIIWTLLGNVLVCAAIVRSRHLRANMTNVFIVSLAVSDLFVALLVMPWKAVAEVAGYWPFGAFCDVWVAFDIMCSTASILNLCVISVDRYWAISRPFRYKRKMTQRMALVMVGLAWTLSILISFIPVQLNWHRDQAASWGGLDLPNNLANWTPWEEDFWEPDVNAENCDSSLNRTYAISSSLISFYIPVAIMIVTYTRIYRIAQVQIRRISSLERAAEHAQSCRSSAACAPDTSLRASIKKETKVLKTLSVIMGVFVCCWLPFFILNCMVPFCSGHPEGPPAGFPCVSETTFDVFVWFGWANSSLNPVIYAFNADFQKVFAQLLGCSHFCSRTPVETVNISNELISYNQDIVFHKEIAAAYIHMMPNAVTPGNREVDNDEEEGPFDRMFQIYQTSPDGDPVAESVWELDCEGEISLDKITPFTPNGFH
Chain of High affinity nerve growth factor receptor (Homo sapiens) (P04629 33-796 limits assumed): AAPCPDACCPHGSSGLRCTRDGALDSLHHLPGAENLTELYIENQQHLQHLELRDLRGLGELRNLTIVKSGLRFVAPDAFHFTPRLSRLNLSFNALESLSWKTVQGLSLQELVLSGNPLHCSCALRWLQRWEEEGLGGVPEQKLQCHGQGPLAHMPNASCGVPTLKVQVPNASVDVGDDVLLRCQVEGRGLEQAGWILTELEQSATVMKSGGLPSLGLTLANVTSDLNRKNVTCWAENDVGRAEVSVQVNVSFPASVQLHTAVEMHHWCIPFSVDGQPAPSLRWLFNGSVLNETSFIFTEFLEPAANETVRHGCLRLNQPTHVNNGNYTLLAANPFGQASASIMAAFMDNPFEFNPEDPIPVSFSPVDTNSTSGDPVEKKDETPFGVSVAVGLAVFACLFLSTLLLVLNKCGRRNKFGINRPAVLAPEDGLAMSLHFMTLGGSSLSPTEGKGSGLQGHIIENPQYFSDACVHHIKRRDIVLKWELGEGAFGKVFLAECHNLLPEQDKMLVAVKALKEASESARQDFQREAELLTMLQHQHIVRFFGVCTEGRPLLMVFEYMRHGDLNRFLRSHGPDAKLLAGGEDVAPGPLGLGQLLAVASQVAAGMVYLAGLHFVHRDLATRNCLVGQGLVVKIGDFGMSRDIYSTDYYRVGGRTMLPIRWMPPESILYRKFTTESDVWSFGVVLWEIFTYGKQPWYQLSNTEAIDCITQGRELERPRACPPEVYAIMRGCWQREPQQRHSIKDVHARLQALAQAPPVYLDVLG
Chain of G protein-coupled receptor kinase 5 (Homo sapiens) (P34947 whole entry, looked up): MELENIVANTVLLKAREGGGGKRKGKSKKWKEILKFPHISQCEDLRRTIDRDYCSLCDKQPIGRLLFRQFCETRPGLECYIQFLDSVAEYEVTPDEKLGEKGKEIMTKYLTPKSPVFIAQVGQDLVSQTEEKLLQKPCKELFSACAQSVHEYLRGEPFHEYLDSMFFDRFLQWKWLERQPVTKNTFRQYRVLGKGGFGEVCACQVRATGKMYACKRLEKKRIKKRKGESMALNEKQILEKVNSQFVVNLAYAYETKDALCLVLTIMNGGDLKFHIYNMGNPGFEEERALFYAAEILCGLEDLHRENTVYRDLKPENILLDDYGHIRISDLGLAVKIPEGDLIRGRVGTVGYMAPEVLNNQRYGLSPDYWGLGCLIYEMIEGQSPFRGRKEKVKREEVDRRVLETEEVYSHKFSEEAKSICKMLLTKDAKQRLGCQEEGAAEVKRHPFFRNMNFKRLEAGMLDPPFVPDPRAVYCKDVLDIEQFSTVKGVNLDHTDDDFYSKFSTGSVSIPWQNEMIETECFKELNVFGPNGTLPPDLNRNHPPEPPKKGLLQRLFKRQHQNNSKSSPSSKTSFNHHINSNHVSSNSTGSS
Chain of Beta-1 adrenergic receptor (Homo sapiens) (P08588 whole entry, looked up): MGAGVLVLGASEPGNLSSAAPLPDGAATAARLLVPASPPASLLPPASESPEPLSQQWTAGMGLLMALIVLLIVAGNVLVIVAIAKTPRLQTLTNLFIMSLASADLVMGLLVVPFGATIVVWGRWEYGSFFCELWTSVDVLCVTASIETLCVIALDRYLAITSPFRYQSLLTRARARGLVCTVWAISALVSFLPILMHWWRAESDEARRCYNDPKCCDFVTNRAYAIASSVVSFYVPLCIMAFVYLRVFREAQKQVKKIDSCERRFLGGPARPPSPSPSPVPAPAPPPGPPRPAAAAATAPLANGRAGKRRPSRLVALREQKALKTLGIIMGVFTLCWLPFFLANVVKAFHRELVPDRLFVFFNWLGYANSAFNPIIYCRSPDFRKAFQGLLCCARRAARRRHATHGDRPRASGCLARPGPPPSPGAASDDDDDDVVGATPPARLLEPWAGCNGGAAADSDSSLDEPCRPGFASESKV
Chain of Serine/threonine-protein kinase SIK2 (Homo sapiens) (Q9H0K1 whole entry, looked up): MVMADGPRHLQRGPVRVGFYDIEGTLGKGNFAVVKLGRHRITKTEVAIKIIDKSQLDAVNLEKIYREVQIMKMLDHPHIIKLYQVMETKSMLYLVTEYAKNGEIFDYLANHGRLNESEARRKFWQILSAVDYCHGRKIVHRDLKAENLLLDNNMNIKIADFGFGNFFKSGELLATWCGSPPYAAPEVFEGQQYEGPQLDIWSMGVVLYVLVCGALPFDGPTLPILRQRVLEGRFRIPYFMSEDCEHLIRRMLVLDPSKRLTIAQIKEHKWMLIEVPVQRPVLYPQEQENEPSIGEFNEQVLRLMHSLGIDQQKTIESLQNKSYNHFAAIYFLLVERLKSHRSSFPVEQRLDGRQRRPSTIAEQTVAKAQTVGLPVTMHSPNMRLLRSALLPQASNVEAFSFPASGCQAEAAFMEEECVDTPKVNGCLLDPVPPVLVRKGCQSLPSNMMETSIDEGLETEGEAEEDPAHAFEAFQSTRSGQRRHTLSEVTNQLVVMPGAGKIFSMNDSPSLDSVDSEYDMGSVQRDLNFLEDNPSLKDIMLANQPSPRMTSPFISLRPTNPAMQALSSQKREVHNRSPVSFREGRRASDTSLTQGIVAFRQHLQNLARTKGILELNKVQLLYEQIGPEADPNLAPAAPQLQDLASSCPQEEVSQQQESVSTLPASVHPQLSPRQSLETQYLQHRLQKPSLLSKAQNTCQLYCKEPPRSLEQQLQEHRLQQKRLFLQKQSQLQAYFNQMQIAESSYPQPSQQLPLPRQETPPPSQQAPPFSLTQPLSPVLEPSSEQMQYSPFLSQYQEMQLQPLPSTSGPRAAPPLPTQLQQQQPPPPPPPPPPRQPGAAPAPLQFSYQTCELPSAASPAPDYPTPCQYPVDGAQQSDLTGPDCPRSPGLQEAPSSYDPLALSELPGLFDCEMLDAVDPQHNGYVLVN
Chain of 5'-AMP-activated protein kinase catalytic subunit alpha-1 (Homo sapiens) (Q13131 whole entry, looked up): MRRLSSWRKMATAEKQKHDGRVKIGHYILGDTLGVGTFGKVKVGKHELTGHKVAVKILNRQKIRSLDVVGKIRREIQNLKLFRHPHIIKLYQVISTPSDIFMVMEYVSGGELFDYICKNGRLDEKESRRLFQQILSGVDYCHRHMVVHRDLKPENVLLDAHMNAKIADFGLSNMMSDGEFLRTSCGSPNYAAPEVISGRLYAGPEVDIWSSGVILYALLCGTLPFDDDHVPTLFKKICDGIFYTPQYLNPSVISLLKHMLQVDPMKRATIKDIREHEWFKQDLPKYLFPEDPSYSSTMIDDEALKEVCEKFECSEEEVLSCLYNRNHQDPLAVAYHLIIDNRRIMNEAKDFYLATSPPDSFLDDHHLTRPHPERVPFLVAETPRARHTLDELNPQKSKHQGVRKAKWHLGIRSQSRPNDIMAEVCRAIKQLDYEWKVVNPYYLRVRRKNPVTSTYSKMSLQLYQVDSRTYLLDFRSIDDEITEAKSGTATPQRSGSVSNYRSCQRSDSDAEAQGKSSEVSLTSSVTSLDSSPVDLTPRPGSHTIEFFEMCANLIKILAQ
Chain of Tyrosine-protein kinase Fgr (Homo sapiens) (P09769 2-529 limits assumed): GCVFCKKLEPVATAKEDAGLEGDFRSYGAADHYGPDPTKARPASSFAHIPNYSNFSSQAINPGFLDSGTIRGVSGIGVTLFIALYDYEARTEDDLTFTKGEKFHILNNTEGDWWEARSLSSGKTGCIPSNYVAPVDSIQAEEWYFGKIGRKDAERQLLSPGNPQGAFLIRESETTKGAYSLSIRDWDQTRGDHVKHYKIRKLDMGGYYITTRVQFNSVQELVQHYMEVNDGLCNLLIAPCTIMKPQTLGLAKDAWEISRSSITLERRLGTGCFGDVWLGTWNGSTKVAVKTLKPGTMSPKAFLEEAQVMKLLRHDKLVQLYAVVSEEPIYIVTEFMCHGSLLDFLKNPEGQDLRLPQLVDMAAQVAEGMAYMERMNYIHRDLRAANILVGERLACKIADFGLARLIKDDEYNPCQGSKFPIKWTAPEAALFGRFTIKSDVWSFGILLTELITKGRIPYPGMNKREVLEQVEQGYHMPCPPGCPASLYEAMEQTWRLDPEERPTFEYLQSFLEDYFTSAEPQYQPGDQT

% Residual activity with Skepinone-L [1]: 88%
% Residual activity with Skepinone-L [2]: 97%
% Residual activity with Skepinone-L [3]: 121%
% Residual activity with Skepinone-L [4]: 94%
% Residual activity with Skepinone-L [5]: 111%
% Residual activity with Skepinone-L [6]: 96%
inhibition [7]: 21.8%
% Residual activity with Skepinone-L [8]: 111%
% Residual activity with Skepinone-L [9]: 95%
% Residual activity with Skepinone-L [10]: 96%
% Residual activity with Skepinone-L [11]: 94%
inhibition [12]: 30.4%
% Residual activity with Skepinone-L [13]: 94%
% Residual activity with Skepinone-L [14]: 97%
% Residual activity with Skepinone-L [15]: 58%
% Residual activity with Skepinone-L [16]: 100%
% Residual activity with Skepinone-L [17]: 95%
% Residual activity with Skepinone-L [18]: 86%
inhibition [19]: 40.5%
% Residual activity with Skepinone-L [20]: 99%
inhibition [21]: 6.53%
% Residual activity with Skepinone-L [22]: 100%
% Residual activity with Skepinone-L [23]: 86%
% Residual activity with Skepinone-L [24]: 99%
% Residual activity with Skepinone-L [25]: 84%
% Residual activity with Skepinone-L [26]: 90%
inhibition [27]: 21%
% Residual activity with Skepinone-L [28]: 91%
% Residual activity with Skepinone-L [29]: 83%
% Residual activity with Skepinone-L [30]: 128%
% Residual activity with Skepinone-L [31]: 94%
% Residual activity with Skepinone-L [32]: 93%
% Residual activity with Skepinone-L [33]: 96%
% Residual activity with Skepinone-L [34]: 88%
% Residual activity with Skepinone-L [35]: 97%
% Residual activity with Skepinone-L [36]: 102%
% Residual activity with Skepinone-L [37]: 99%
% Residual activity with Skepinone-L [38]: 53%
% Residual activity with Skepinone-L [39]: 89%
inhibition [40]: 13.8%
% Residual activity with Skepinone-L [41]: 96%
% Residual activity with Skepinone-L [42]: 100%
inhibition [43]: 14.8%
% Residual activity with Skepinone-L [44]: 106%
% Residual activity with Skepinone-L [45]: 100%
% Residual activity with Skepinone-L [46]: 111%
% Residual activity with Skepinone-L [47]: 82%
% Residual activity with Skepinone-L [48]: 107%
inhibition [49]: 10.3%
Structure (SMILES): O=C1c2ccc(Nc3ccc(F)cc3F)cc2CCc2ccc(OC[C@H](O)CO)cc21 [Skepinone-L]
